Data on one substance can be found in patent US10869900B2, “Composition and products comprising senescent cells for use in tissue regeneration” (QRSkin GmbH, priority 2015, dated 2020).

This experiment concerns Human primary keratinocyte BKB10002 cells. Kind of experiment: Senescence induction by surfactant, β-Gal staining. Format: cell-based. As to conditions: 2 uM NP40 for 14 days, EpiLife medium+S7 supplement, medium change every second day. The procedure: Human primary keratinocyte BKB10002 cells were treated with the surfactant NP40 in order to induce senescence. Cells were grown in EpiLife medium+S7 supplement without (control) or with 2 uM NP40 for 14 days with a medium change every second day. […] Protein concentrations in the supernatants of the cell cultures were quantified using the Bio-Plex® Multiplex Immunoassays or ELISA kits from BIO-RAD.

For the substance NP40, the “cells showing a positive β-Gal staining” value amounted to 11%.
